Laboratory results from patent US11179399B2, “6-heterocyclyl-4-morpholin-4-ylpyridine-2-one compounds useful for the treatment of cancer and diabetes” (Sprint Bioscience AB, priority 2016, dated 2021).

biological target: Vps34 enzyme (Homo sapiens (Human), UniProt Q8NEB9); assay: Vps34 biochemical assay (Adapta kinase assay); details: 20 μM ATP and 200 μM PI:PS in substrate mix, 1 h at room temperature, read-out: Median IC50 uM Adapta
Procedure: Dilution series of compounds of the invention were prepared in DMSO at 100 times the final assay concentration (n1=n0/3 in 10 points). The compounds were further diluted to 4 times the assay concentration in assay buffer (Life technologies buffer Q, PV5125, diluted 5 times supplemented with 2 mM DTT and 2 mM MnCl2). 2.5 μl of the diluted compounds were added to a 384 well assay plate followed by 2.5 μl of 16.5 nM Vps34 enzyme (Life technologies, PV5126). Enzyme and compounds were pre-incubated at rt for 15 min. Then 5 μl of substrate mix containing 20 μM ATP (Life technologies, PV3227) and 200 μM PI:PS substrate (Life technologies, PV5122) in assay buffer was added to the wells containing compound and enzyme. Mixing was performed by pipetting several times. The reaction was incubated at room temperature for 1 h. Then 5 μl stop-detection mix, prepared as described in the Adapta kinase assay kit instructions (Life technologies, PV5099) containing Adapta Eu-anti-ADP antibody (2.3 nM), Alexa Fluor 647 ADP tracer (9 nM) and EDTA (30 mM) in TR-FRET buffer, was added to quench the reaction. Mixing was performed by pipetting several times. The assay plate was then incubated at room temperature for 30 min and read with Artemis micro plate reader. Percent inhibition of the compounds as compared to DMSO treated control samples was calculated. By the use of Dotmatics software compound concentration versus percent inhibition was fitted to generate IC50 values.

Chain of Vps34 enzyme (Q8NEB9 whole entry): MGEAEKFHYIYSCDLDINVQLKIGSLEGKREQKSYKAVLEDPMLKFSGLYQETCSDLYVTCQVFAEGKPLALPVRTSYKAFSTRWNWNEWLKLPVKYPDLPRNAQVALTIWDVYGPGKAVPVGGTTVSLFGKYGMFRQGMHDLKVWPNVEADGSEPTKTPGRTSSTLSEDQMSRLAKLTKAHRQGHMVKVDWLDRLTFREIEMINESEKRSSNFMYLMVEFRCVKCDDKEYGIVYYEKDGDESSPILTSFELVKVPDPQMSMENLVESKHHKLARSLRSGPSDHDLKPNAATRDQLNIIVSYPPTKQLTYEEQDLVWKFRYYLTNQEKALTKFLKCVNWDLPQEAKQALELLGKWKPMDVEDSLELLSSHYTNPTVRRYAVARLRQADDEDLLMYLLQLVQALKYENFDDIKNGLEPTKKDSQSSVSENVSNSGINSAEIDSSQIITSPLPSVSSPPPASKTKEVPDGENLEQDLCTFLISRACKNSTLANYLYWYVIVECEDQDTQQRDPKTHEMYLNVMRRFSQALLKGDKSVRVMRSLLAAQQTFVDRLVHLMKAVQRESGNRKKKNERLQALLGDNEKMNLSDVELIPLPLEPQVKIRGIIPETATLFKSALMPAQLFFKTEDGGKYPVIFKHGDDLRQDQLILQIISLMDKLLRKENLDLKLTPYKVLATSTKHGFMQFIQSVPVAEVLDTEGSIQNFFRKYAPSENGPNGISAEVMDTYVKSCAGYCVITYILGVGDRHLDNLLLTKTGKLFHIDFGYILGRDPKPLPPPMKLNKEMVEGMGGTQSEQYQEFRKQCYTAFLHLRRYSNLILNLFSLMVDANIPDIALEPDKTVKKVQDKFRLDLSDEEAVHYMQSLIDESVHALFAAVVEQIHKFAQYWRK

IC50, 0.02 µM:
C[C@@H]1COCCN1c1cc(N2CCCC2c2cc(F)ccc2F)[nH]c(=O)c1 (single isomer, unassigned) [Example 14_1]
COc1cccc(C2CCCN2c2cc(N3CCOC[C@H]3C)cc(=O)[nH]2)c1 (single isomer, unassigned) [Example 17_1]

IC50, 0.1 µM:
C[C@@H]1COCCN1c1cc(N2CCCC2c2cnn(C)c2)[nH]c(=O)c1 (mixture of isomers) [Example 19, (R) and (S) 4-[(3R)-3-methylmorpholin-4-yl]-6-[2-(1-methylpyrazol-4-yl)pyrrolidin-1-yl]-1H-pyridin-2-one]
Cc1cc(C2CCCN2c2cc(N3CCOC[C@H]3C)cc(=O)[nH]2)no1 (mixture of isomers) [Example 40, (R) and (S) 6-[2-(5-methylisoxazol-3-yl)pyrrolidin-1-yl]-4-[(3R)-3-methylmorpholin-4-yl]-1H-pyridin-2-one]
C[C@@H]1COCCN1c1cc(N2CCCC2c2cccc(F)c2)[nH]c(=O)c1 (single isomer, unassigned) [Example 13_2]
CCn1ccc(C2CCCN2c2cc(N3CCOC[C@H]3C)cc(=O)[nH]2)n1 (single isomer, unassigned) [Example 21_1]
Cc1ccc(C2CCCN2c2cc(N3CCOC[C@H]3C)cc(=O)[nH]2)o1 (single isomer, unassigned) [Example 22_2]
Cc1cc(C2CCCN2c2cc(N3CCOC[C@H]3C)cc(=O)[nH]2)no1 (single isomer, unassigned) [Example 40_1]
C[C@@H]1COCCN1c1cc(N2CCOCC2C(F)(F)F)[nH]c(=O)c1 (single isomer, unassigned) [Example 43_2]

IC50, 0.2 µM:
Cc1cc(C2CCCN2c2cc(N3CCOC[C@H]3C)cc(=O)[nH]2)nn1C (mixture of isomers) [Example 20, (R) and (S) 6-[2-(1,5-dimethylpyrazol-3-yl)pyrrolidin-1-yl]-4-[(3R)-3-methylmorpholin-4-yl]-1H-pyridin-2-one]
COC(C)(C)C1CCCN1c1cc(N2CCOC[C@H]2C)cc(=O)[nH]1 (single isomer, unassigned) [Example 11_1]
C[C@@H]1COCCN1c1cc(N2CCCC2C2CCCCC2)[nH]c(=O)c1 (single isomer, unassigned) [Example 12_1]
C[C@@H]1COCCN1c1cc(N2CCCC2C2CCCCC2)[nH]c(=O)c1 (single isomer, unassigned) [Example 12_2]
C[C@@H]1COCCN1c1cc(N2CCCC2c2cccc(OC(F)(F)F)c2)[nH]c(=O)c1 (single isomer, unassigned) [Example 15_1]
C[C@@H]1COCCN1c1cc(N2CCCC2c2cccc(OC(F)(F)F)c2)[nH]c(=O)c1 (single isomer, unassigned) [Example 15_2]
Cc1cc(C2CCCN2c2cc(N3CCOC[C@H]3C)cc(=O)[nH]2)nn1C (single isomer, unassigned) [Example 20_2]
CC1COCCN1c1cc(N2CCOC[C@H]2C)cc(=O)[nH]1 (single isomer, unassigned) [Example 24_2]
C[C@@H]1COCCN1c1cc(N2CCCC2c2ccccn2)[nH]c(=O)c1 (single isomer, unassigned) [Example 38_2]

IC50, 0.3 µM:
COC(C)(C)C1CCCN1c1cc(N2CCOC[C@H]2C)cc(=O)[nH]1 (single isomer, unassigned) [Example 11_2]
C[C@@H]1COCCN1c1cc(N2CCCC2c2cnn(C)c2)[nH]c(=O)c1 (single isomer, unassigned) [Example 19_1]
C[C@@H]1COCCN1c1cc(N2CCCC2c2cnn(C)c2)[nH]c(=O)c1 (single isomer, unassigned) [Example 19_2]
CCn1ccc(C2CCCN2c2cc(N3CCOC[C@H]3C)cc(=O)[nH]2)n1 (single isomer, unassigned) [Example 21_2]
C[C@@H]1COCCN1c1cc(N2CCOCC2c2ccccc2)[nH]c(=O)c1 (single isomer, unassigned) [Example 26_2]

IC50, 0.05 µM:
C[C@@H]1COCCN1c1cc(N2CCCC2c2ccccn2)[nH]c(=O)c1 (mixture of isomers) [Example 38, (R) and (S) 4-[(3R)-3-methylmorpholin-4-yl]-6-[2-(2-pyridyl)pyrrolidin-1-yl]-1H-pyridin-2-one]
C[C@@H]1COCCN1c1cc(N2CCCC2c2nccs2)[nH]c(=O)c1 (mixture of isomers) [Example 39, (R) and (S) 4-[(3R)-3-methylmorpholin-4-yl]-6-(2-thiazol-2-ylpyrrolidin-1-yl)-1H-pyridin-2-one]
C[C@@H]1COCCN1c1cc(N2CCCC2c2cc(F)ccc2F)[nH]c(=O)c1 (single isomer, unassigned) [Example 14_2]
C[C@@H]1COCCN1c1cc(N2CCCC2c2ccccn2)[nH]c(=O)c1 (single isomer, unassigned) [Example 38_1]

IC50, 0.07 µM:
C[C@@H]1COCCN1c1cc(N2CCCC2c2ccccc2)[nH]c(=O)c1 (single isomer, unassigned) [Example 18_1]

IC50, 0.06 µM:
C[C@@H]1COCCN1c1cc(N2CCCC2c2cccc(OC(F)(F)F)c2)[nH]c(=O)c1 (mixture of isomers) [Example 15, (R) and (S) 4-[(3R)-3-methylmorpholin-4-yl]-6-[2-[3-(trifluoromethoxy)phenyl]pyrrolidin-1-yl]-1H-pyridin-2-one]
C[C@@H]1COCCN1c1cc(N2CCCC2c2ccccc2)[nH]c(=O)c1 (mixture of isomers) [Example 18, (R) and (S) 4-[(3R)-3-methylmorpholin-4-yl]-6-(2-phenylpyrrolidin-1-yl)-1H-pyridin-2-one]
CCn1ccc(C2CCCN2c2cc(N3CCOC[C@H]3C)cc(=O)[nH]2)n1 (mixture of isomers) [Example 21, (R) and (S) 6-[2-(1-ethylpyrazol-3-yl)pyrrolidin-1-yl]-4-[(3R)-3-methylmorpholin-4-yl]-1H-pyridin-2-one]
Cc1ccc(C2CCCN2c2cc(N3CCOC[C@H]3C)cc(=O)[nH]2)o1 (mixture of isomers) [Example 22, (R) and (S) 6-[2-(5-methyl-2-furyl)pyrrolidin-1-yl]-4-[(3R)-3-methylmorpholin-4-yl]-1H-pyridin-2-one]
C[C@@H]1COCCN1c1cc(N2CCOCC2c2ccccc2)[nH]c(=O)c1 (mixture of isomers) [Example 26, (R) and (S) 4-[(3R)-3-methylmorpholin-4-yl]-6-(3-phenylmorpholin-4-yl)-1H-pyridin-2-one]
C[C@@H]1COCCN1c1cc(N2CCCC2c2cccc(F)c2)[nH]c(=O)c1 (single isomer, unassigned) [Example 13_1]
Cc1cc(C2CCCN2c2cc(N3CCOC[C@H]3C)cc(=O)[nH]2)nn1C (single isomer, unassigned) [Example 20_1]

IC50, 0.08 µM:
C[C@@H]1COCCN1c1cc(N2CCCC2c2cccc(C(F)(F)F)c2)[nH]c(=O)c1 (single isomer, unassigned) [Example 16_2]
C[C@@H]1COCCN1c1cc(N2CCCCC2C(F)(F)F)[nH]c(=O)c1 (single isomer, unassigned) [Example 25_2]

IC50, 0.09 µM:
COC(C)(C)C1CCCN1c1cc(N2CCOC[C@H]2C)cc(=O)[nH]1 (mixture of isomers) [Example 11, (R) and (S) 6-[2-(1-methoxy-1-methyl-ethyl)pyrrolidin-1-yl]-4-[(3R)-3-methylmorpholin-4-yl]-1H-pyridin-2-one]
C[C@@H]1COCCN1c1cc(N2CCCC2C2CCCCC2)[nH]c(=O)c1 (mixture of isomers) [Example 12, (R) and (S) 6-(2-cyclohexylpyrrolidin-1-yl)-4-[(3R)-3-methylmorpholin-4-yl]-1H-pyridin-2-one]

IC50, 0.04 µM:
C[C@@H]1COCCN1c1cc(N2CCCC2c2cc(F)ccc2F)[nH]c(=O)c1 (mixture of isomers) [Example 14, (R) and (S) 6-[2-(2,5-difluorophenyl)pyrrolidin-1-yl]-4-[(3R)-3-methylmorpholin-4-yl]-1H-pyridin-2-one]
Cc1ccc(C2CCCN2c2cc(N3CCOC[C@H]3C)cc(=O)[nH]2)o1 (single isomer, unassigned) [Example 22_1]

IC50, 0.006 µM:
COc1cccc(C2CCCCN2c2cc(N3CCOC[C@H]3C)cc(=O)[nH]2)c1 (single isomer, unassigned) [Example 44_2]

IC50, 0.03 µM:
C[C@@H]1COCCN1c1cc(N2CCCC2c2cccc(N(C)C)c2)[nH]c(=O)c1 (mixture of isomers) [Example 23, (R) and (S) 6-[2-[3-(dimethylamino)phenyl]pyrrolidin-1-yl]-4-[(3R)-3-methylmorpholin-4-yl]-1H-pyridin-2-one]
CC1COCCN1c1cc(N2CCOC[C@H]2C)cc(=O)[nH]1 (mixture of isomers) [Example 24, (R) and (S) 4-[(3R)-3-methylmorpholin-4-yl]-6-(3-methylmorpholin-4-yl)-1H-pyridin-2-one]
C[C@@H]1COCCN1c1cc(N2CCCC2c2cccc(C(F)(F)F)c2)[nH]c(=O)c1 (single isomer, unassigned) [Example 16_1]
